40 compounds from US20040176431A1, “Antiproliferative 2-(sulfo-phenyl)-aminothiazole derivatives and pharmaceutical compositions, and methods for their use” (Pfizer, Inc., priority 2003, published 2004) can be followed below.

Each structure is given as a SMILES string.

This assay has as its target T1, CDK4/cyclin D3 (Homo sapiens, UniProt P11802).
T1 construct: made in house; host or cells: insect cells (baculovirus co-infection)
Kind of assay: Inhibition of CDK4/Cyclin D retinoblastoma kinase activity.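 For % Inhib CDK4/D @ 1 μM: relative to DMSO control wells without compound minus no-enzyme background.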 The format is biochemical. As to conditions: for inhibition at 0.1 µM / % Inhib CDK4/D @ 0.1 μM: test compound at 0.1 μM; for inhibition at 0.1 µM: read-out: % Inhib CDK4/D @ 0.1 μM; for inhibition at 1 µM / % Inhib CDK4/D @ 1 μM: test compound at 1 μM (head line shifted: 'mM' printed beside 'Structure'); for inhibition at 1 µM: read-out: % Inhib CDK4/D @ 1 μM; for inhibition at 0.03 µM / % Inhib CDK4/D @ 0.03: test compound at 0.03 (unit cell empty, head line shifted; μM); for inhibition at 0.03 µM: read-out: % Inhib CDK4/D @ 0.03. Summed up:
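Human CDK4 with truncated cyclin D3 (1-264) from baculovirus-infected insect cells, 5 nM, phosphorylating His-tagged Rb fragment (386-928) with 25 μM [32P/33P]ATP in pH 7.4 HEPES/MgCl2, 2% DMSO, 30° C., 20 min (60 min for tight binders). Filter capture, phosphorimager; apparent Ki from competitive or tight-binding competitive fits.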

T1 sequence (P11802 whole entry): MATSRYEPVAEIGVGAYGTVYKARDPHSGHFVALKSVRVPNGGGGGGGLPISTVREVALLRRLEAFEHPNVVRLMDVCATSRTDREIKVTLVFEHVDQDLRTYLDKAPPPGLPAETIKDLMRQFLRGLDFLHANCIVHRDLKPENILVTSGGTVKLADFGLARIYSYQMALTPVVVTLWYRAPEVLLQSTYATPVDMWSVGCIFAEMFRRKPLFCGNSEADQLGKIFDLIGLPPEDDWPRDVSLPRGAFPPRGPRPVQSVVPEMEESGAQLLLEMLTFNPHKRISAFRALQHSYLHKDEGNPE
T1 sequence (P30281 1-264 partner limits assumed): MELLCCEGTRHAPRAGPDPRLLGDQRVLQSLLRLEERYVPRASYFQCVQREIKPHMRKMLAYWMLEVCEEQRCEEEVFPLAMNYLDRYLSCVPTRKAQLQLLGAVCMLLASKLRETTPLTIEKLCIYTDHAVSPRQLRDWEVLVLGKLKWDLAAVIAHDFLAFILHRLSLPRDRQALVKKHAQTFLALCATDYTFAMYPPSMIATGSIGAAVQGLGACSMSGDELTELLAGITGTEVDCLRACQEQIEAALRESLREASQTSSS

For `Nc1nc(Nc2cccc([S+]([O-])CC(O)CO)c2)sc1C(=O)c1c(Cl)cccc1Cl` (stereo not drawn) [DD(154)], the inhibition at 0.1 µM is 60%, the inhibition at 1 µM was 73.5% and the inhibition at 0.03 µM came out at 31%.
`Cc1noc(C)c1CS(=O)(=O)c1ccc(Nc2nc(N)c(C(=O)c3c(Cl)cccc3Cl)s2)cc1` [DD(162)]: the “% Inhib CDK4/D @ 0.1 μM” value is given as 13%, the “% Inhib CDK4/D @ 1 μM” value is recorded as 14% and the “% Inhib CDK4/D @ 0.03” value is recorded as 5.8%.
As for `Nc1nc(Nc2cccc([S+]([O-])Cc3ccncc3)c2)sc1C(=O)c1c(Cl)cccc1Cl` (stereo not drawn) [DD(155)], the inhibition at 0.1 µM was found to be 35%, the inhibition at 1 µM is 59.6% and the inhibition at 0.03 µM was found to be 25%.
Take `CCC[S+]([O-])c1ccc(Nc2nc(N)c(C(=O)c3c(Cl)cccc3Cl)s2)cc1` (stereo not drawn) [DD(105)]: the inhibition at 0.1 µM is 39%, the inhibition at 1 µM stood at 61.9% and the inhibition at 0.03 µM was determined as 0.9%.
`CC(C)=CCS(=O)(=O)c1ccc(Nc2nc(N)c(C(=O)c3c(Cl)cccc3Cl)s2)cc1` [DD(224)]: the “% Inhib CDK4/D @ 0.1 μM” value turned out to be 12%, the “% Inhib CDK4/D @ 1 μM” value amounted to 9.8% and the “% Inhib CDK4/D @ 0.03” value was −2.6%.
`Nc1nc(Nc2ccc([S+]([O-])CCN3CCCCC3)cc2)sc1C(=O)c1c(Cl)cccc1Cl` (stereo not drawn) [DD(91)]: the inhibition at 0.1 µM amounted to 24%, the inhibition at 1 µM is 68.2% and the inhibition at 0.03 µM was -6.3%.
For `CC(=O)OCC[S+]([O-])c1ccc(Nc2nc(N)c(C(=O)c3c(Cl)cccc3Cl)s2)cc1` (stereo not drawn) [DD(117)], the inhibition at 0.1 µM amounted to 52%, the inhibition at 1 µM turned out to be 61.1% and the inhibition at 0.03 µM stood at 16%.
`COc1cccc(CS(=O)(=O)c2ccc(Nc3nc(N)c(C(=O)c4c(Cl)cccc4Cl)s3)cc2)c1` [DD(177)]: the “% Inhib CDK4/D @ 0.1 μM” value was determined as 15%, the “% Inhib CDK4/D @ 1 μM” value is 3.2% and the “% Inhib CDK4/D @ 0.03” value is −29%.
Regarding `CC(C)CCOC(=O)CS(=O)(=O)c1ccc(Nc2nc(N)c(C(=O)c3c(Cl)cccc3Cl)s2)cc1` [DD(193)], the “% Inhib CDK4/D @ 0.1 μM” value is reported as 31%, the “% Inhib CDK4/D @ 1 μM” value is reported as 61.1% and the “% Inhib CDK4/D @ 0.03” value is −2.9%.
Turning to `Cc1noc(C)c1CS(=O)(=O)c1ccc(Nc2nc(N)c(C(=O)c3c(Cl)cccc3Cl)s2)cc1` [DD(202)], the “% Inhib CDK4/D @ 0.1 μM” value came to 29%, the “% Inhib CDK4/D @ 1 μM” value worked out at 45.2% and the “% Inhib CDK4/D @ 0.03” value came to 17%.
For `Nc1nc(Nc2ccc(S(=O)(=O)Cc3ncon3)cc2)sc1C(=O)c1c(Cl)cccc1Cl` [DD(208)], the “% Inhib CDK4/D @ 0.1 μM” value amounted to 36%, the “% Inhib CDK4/D @ 1 μM” value worked out at 47.8% and the “% Inhib CDK4/D @ 0.03” value was 0.2%.
Turning to `CC(C)CCSc1cccc(Nc2nc(N)c(C(=O)c3c(Cl)cccc3Cl)s2)c1` [DD(53)], the inhibition at 0.1 µM came to 14%, the inhibition at 1 µM came to 31.5% and the inhibition at 0.03 µM came to 5.6%.
Regarding `CCOC(=O)CCSc1cccc(Nc2nc(N)c(C(=O)c3c(Cl)cccc3Cl)s2)c1` [DD(62)], the inhibition at 0.1 µM is 27%, the inhibition at 1 µM is 46.4% and the inhibition at 0.03 µM turned out to be 6.4%.
As to `CC(C)CCS(=O)(=O)c1ccc(Nc2nc(N)c(C(=O)c3c(Cl)cccc3Cl)s2)cc1` [DD(213)], the “% Inhib CDK4/D @ 0.1 μM” value was found to be 14%, the “% Inhib CDK4/D @ 1 μM” value is listed as −11% and the “% Inhib CDK4/D @ 0.03” value is −22%.
Turning to `Nc1nc(Nc2cccc([S+]([O-])CC3CNC(=O)O3)c2)sc1C(=O)c1c(Cl)cccc1Cl` (stereo not drawn) [DD(129)], the inhibition at 0.1 µM amounted to 33%, the inhibition at 1 µM was found to be 33.3% and the inhibition at 0.03 µM worked out at 19%.
For `CC1(C[S+]([O-])c2cccc(Nc3nc(N)c(C(=O)c4c(Cl)cccc4Cl)s3)c2)CO1` (stereo not drawn) [DD(140)], in that order: 41%, 68% and 25%.
With `Nc1nc(Nc2ccc([S+]([O-])CC3CC3)cc2)sc1C(=O)c1c(Cl)cccc1Cl` (stereo not drawn) [DD(96)], the inhibition at 0.1 µM turned out to be 28%, the inhibition at 1 µM stood at 55.4% and the inhibition at 0.03 µM was -8.1%.
Turning to `CCOCC[S+]([O-])c1cccc(Nc2nc(N)c(C(=O)c3c(Cl)cccc3Cl)s2)c1` (stereo not drawn) [DD(153)], the inhibition at 0.1 µM was found to be 44%, the inhibition at 1 µM was 51.8% and the inhibition at 0.03 µM was 15%.
For `Nc1nc(Nc2cccc([S+]([O-])CCCO)c2)sc1C(=O)c1c(Cl)cccc1Cl` (stereo not drawn) [DD(125)], in that order: 55%, 61.5% and 15%.
For `COCCSc1cccc(Nc2nc(N)c(C(=O)c3c(Cl)cccc3Cl)s2)c1` [DD(54)], in that order: 34%, 75.2% and 20%.
For `CN1CCCC1CC[S+]([O-])c1ccc(Nc2nc(N)c(C(=O)c3c(Cl)cccc3Cl)s2)cc1` (stereo not drawn) [DD(99)], in that order: 34%, 77.1% and -5.6%.
For the compound `C=CCCSc1ccc(Nc2nc(N)c(C(=O)c3c(Cl)cccc3Cl)s2)cc1` [DD(6)], the inhibition at 0.1 µM amounted to 20%, the inhibition at 1 µM was found to be 48% and the inhibition at 0.03 µM was found to be 22%.
Take `COc1cccc(C[S+]([O-])c2cccc(Nc3nc(N)c(C(=O)c4c(Cl)cccc4Cl)s3)c2)c1` (stereo not drawn) [DD(137)]: the inhibition at 0.1 µM was 22%, the inhibition at 1 µM is 36.7% and the inhibition at 0.03 µM was -1.7%.
In the case of `Nc1nc(Nc2cccc([S+]([O-])CCO)c2)sc1C(=O)c1c(Cl)cccc1Cl` (stereo not drawn) [DD(149)], the inhibition at 0.1 µM came out at 55%, the inhibition at 1 µM was found to be 57.7% and the inhibition at 0.03 µM stood at 33%.
`Nc1nc(Nc2ccc([S+]([O-])CCCO)cc2)sc1C(=O)c1c(Cl)cccc1Cl` (stereo not drawn) [DD(85)]: the inhibition at 0.1 µM was determined as 49%, the inhibition at 1 µM was determined as 76.8% and the inhibition at 0.03 µM was 3.7%.
For `Nc1nc(Nc2ccc(SCc3ccncc3)cc2)sc1C(=O)c1c(Cl)cccc1Cl` [DD(35)], in that order: 42%, 76.8% and 12%.
For `Nc1nc(Nc2ccc([S+]([O-])CCN3CCOCC3)cc2)sc1C(=O)c1c(Cl)cccc1Cl` (stereo not drawn) [DD(119)], in that order: 36%, 58% and 3.8%.
On to `CC(C)(CO)CS(=O)(=O)c1ccc(Nc2nc(N)c(C(=O)c3c(Cl)cccc3Cl)s2)cc1` [DD(240)], for which the “% Inhib CDK4/D @ 0.1 μM” value turned out to be 11%, the “% Inhib CDK4/D @ 1 μM” value was 8.7% and the “% Inhib CDK4/D @ 0.03” value turned out to be 6.8%.
For the compound `Nc1nc(Nc2ccc(S(=O)(=O)CCO)cc2)sc1C(=O)c1c(Cl)cccc1Cl` [DD(229)], the “% Inhib CDK4/D @ 0.1 μM” value was determined as 23%, the “% Inhib CDK4/D @ 1 μM” value was determined as 3.5% and the “% Inhib CDK4/D @ 0.03” value is recorded as −13%.
Take `NC(=O)CC[S+]([O-])c1ccc(Nc2nc(N)c(C(=O)c3c(Cl)cccc3Cl)s2)cc1` (stereo not drawn) [DD(108)]: the inhibition at 0.1 µM worked out at 60%, the inhibition at 1 µM worked out at 73.9% and the inhibition at 0.03 µM is 14%.
Regarding `Nc1nc(Nc2ccc(S(=O)(=O)CC3CCCO3)cc2)sc1C(=O)c1c(Cl)cccc1Cl` (stereo not drawn) [DD(178)], the “% Inhib CDK4/D @ 0.1 μM” value is 16%, the inhibition at 1 µM is 16.6% and the “% Inhib CDK4/D @ 0.03” value is given as −27%.
In the case of `CCCSc1cccc(Nc2nc(N)c(C(=O)c3c(Cl)cccc3Cl)s2)c1` [DD(65)], the inhibition at 0.1 µM turned out to be 7%, the inhibition at 1 µM was found to be 51.1% and the inhibition at 0.03 µM was 6.5%.
As for `Nc1nc(Nc2cccc(SCC(=O)Nc3ccccc3)c2)sc1C(=O)c1c(Cl)cccc1Cl` [DD(55)], the inhibition at 0.1 µM amounted to 24%, the inhibition at 1 µM was 63.4% and the inhibition at 0.03 µM was determined as 17%.
Turning to `Nc1nc(Nc2cccc(SCCCO)c2)sc1C(=O)c1c(Cl)cccc1Cl` [DD(45)], the inhibition at 0.1 µM came out at 54%, the inhibition at 1 µM turned out to be 79.6% and the inhibition at 0.03 µM was found to be 32%.
With `Nc1nc(Nc2ccc(S(=O)(=O)CCCO)cc2)sc1C(=O)c1c(Cl)cccc1Cl` [DD(205)], the “% Inhib CDK4/D @ 0.1 μM” value is 43%, the “% Inhib CDK4/D @ 1 μM” value stood at 56.4% and the “% Inhib CDK4/D @ 0.03” value is listed as −4.1%.
For the compound `CC(C)CCCS(=O)(=O)c1ccc(Nc2nc(N)c(C(=O)c3c(Cl)cccc3Cl)s2)cc1` [DD(230)], the “% Inhib CDK4/D @ 0.1 μM” value worked out at 20%, the “% Inhib CDK4/D @ 1 μM” value is recorded as −1.6% and the “% Inhib CDK4/D @ 0.03” value is listed as −17%.
As for `CCC(CC)S(=O)(=O)c1ccc(Nc2nc(N)c(C(=O)c3c(Cl)cccc3Cl)s2)cc1` [DD(196)], the inhibition at 0.1 µM came out at 15%, the inhibition at 1 µM amounted to 14.4% and the inhibition at 0.03 µM was 1.3%.
As to `NC(=O)CCSc1ccc(Nc2nc(N)c(C(=O)c3c(Cl)cccc3Cl)s2)cc1` [DD(28)], the inhibition at 0.1 µM turned out to be 51%, the inhibition at 1 µM stood at 86.8% and the inhibition at 0.03 µM is 19%.
Regarding `CC(C)CCCSc1cccc(Nc2nc(N)c(C(=O)c3c(Cl)cccc3Cl)s2)c1` [DD(70)], the inhibition at 0.1 µM was found to be 16%, the inhibition at 1 µM was 5.3% and the inhibition at 0.03 µM amounted to 93%.
As to `CCCS(=O)(=O)c1ccc(Nc2nc(N)c(C(=O)c3c(Cl)cccc3Cl)s2)cc1` [DD(225)], the “% Inhib CDK4/D @ 0.1 μM” value came to 17%, the “% Inhib CDK4/D @ 1 μM” value stood at 0.6% and the “% Inhib CDK4/D @ 0.03” value was −5%.
